Six molecules from patent publication US20060167020A1, “Pyrazolopyrimidines as kinase inhibitors” (priority 2002, published 2006) can be followed below.

One may read the IC50 as the midpoint of a concentration-inhibition curve.

Structures can show the parent of a compound that is named as a salt. Some results are limits rather than exact numbers.

Sequence of GSK-3β (P49841 whole entry, species assumed): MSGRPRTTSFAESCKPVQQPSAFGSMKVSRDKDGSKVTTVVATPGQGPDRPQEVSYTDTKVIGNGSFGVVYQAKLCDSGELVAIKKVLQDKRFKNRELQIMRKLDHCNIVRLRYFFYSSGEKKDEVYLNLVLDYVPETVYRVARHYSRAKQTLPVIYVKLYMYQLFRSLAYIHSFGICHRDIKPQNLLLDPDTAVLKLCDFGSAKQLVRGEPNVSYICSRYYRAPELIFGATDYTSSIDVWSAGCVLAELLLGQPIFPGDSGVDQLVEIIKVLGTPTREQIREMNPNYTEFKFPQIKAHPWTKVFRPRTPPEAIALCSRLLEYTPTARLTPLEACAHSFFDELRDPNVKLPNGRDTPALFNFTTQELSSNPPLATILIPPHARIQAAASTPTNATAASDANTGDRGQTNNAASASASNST

This experiment concerns the target GSK-3β (Homo sapiens, UniProt P49841). Nature of the experiment: GSK3 kinase scintillation proximity assay (phosphorylation of biotinylated glycogen synthase peptide). It counts as biochemical. To be noted: 20 nM kinase, 2.5 uM ATP, 2.8 uM peptide substrate, 40 minutes at room temperature; pIC50 = -log IC50 in Molar. From the text: The phosphorylated biotinylated peptide is then captured onto streptavidin coated scintillation proximity assay (SPA) beads from Amersham Technology, where the signal from the ^33P is amplified via the scintillant contained in the beads.
GSK-3β is commercially available or may be cloned and expressed in E coli using standard techniques to produce soluble, active protein. The production of active protein involves purification in two steps using Metal Chelate and Ion Exchange Chromatography. Protein eluting from Ion Exchange provides >90% pure product that may then be concentrated for use in high throughput screening.
The kinase was assayed at a concentration of 20 nM final in 100 mM HEPES, pH 7.2 containing 10 mM magnesium chloride, 0.1 mg/mL bovine serum albumin, 1 mM dithiothreitol, 0.3 mg/mL heparin, 2.8 uM peptide substrate, 2.5 uM ATP, and 0.2 uCi/well γ^33P]-ATP. After 40 minutes incubation at room temperature, the reaction was stopped by addition of 100 mM EDTA and […] in 100 mM HEPES, pH7.2 followed by an additional solution of diluted Streptavidin coated SPA beads in PBS, pH 7.2 to give a final concentration of 0.25 mg of beads per assay well in a 96-well microtiter plate.
10 mM stock solutions of the compounds of the invention in 100% DMSO are generated as a first step in the screening process. The second step involves the creation of dose response plates where these compounds are diluted 10-fold in 100% DMSO to 1 mM concentrations and subsequently serially diluted 3-fold in 100% DMSO across the plate by automated liquid handling such that the final top concentration of inhibitor is 0.033 mM in the 30 uL kinase assay. The third step involves the creation of the assay plates. This is achieved by transferring 1 uL of the compounds to assay plates by automated liquid handling. The fourth step is to perform the assay as described and count the resulting plates in the Packard TopCount NXT microplate scintillation and luminescence counter.
The final step is data acquisition and analysis where IC50 values are generated for each compound by normalizing curve data to the equation 100*(U1−C2)/(C1−C2) (where U1 is the cpm value, C2 is the background, and C1 is the maximum number of counts), then fitting the normalized data to the equation y=Vmax*(1−(x/(K+x))). The IC50 values were converted to pIC50 values, i.e., −log IC50 in Molar concentration. The data is expressed below in Table 1.
For orientation: SPA uses beads or plates that emit light when radiolabelled molecules are held near them.
For `CN(C)CCCNC(=O)c1ccc(/C=N/Nc2ncnc3c2cnn3-c2cccc3[nH]cnc23)cc1` [Example 32, 4-((E)-{[1-(1H-benzimidazol-4-yl)-1H-pyrazolo[3,4-d]pyrimidin-4-yl]hydrazono}methyl)-N-[3-(dimethylamino)propyl]benzamide], the concentration for half-maximal inhibition (IC50) is less than 100 nM.

Molecule `COc1cccc(-n2ncc3c(N/N=C/c4ccncc4)ncnc32)n1` [Example 1, Isonicotinaldehyde [1-(6-methoxypyridin-2-yl)-1H-pyrazolo[3,4-d]pyrimidin-4-yl]hydrazone] showed an IC50 of less than 100 nM.

Consider `COc1cccc(-n2ncc3c(N/N=C/c4ccc(C(=O)O)cc4)ncnc32)n1` [Example 8], for which the IC50 is 100 to 1000 nM.

The molecule `COc1cccc(-n2ncc3c(N/N=C/c4ccc(N(C)C)nc4)ncnc32)n1` [Example 3, 6-(Dimethylamino)nicotinaldehyde [1-(6-methoxypyridin-2-yl)-1H-pyrazolo[3,4-d]pyrimidin-4-yl]hydrazone] showed a half-inhibitory concentration (IC50) of 100 to 1000 nM.

`Nc1ccc(/C=N/Nc2ncnc3c2cnn3-c2ccccn2)cn1` [Example 17, 6-Aminonicotinaldehyde (1-pyridin-2-yl-1H-pyrazolo[3,4-d]pyrimidin-4-yl)hydrazone trifluoroacetate] showed an IC50 of 1000 to 10000 nM.

Molecule `C(=N\Nc1ncnc2c1cnn2-c1ccccn1)/c1ccncc1` [Example 14, Isonicotinaldehyde (1-pyridin-2-yl-1H-pyrazolo[3,4-d]pyrimidin-4-yl)hydrazone] had an IC50 of 1000 to 10000 nM.
